Test system: P388
Experiment: Cytotoxicity against mouse P388 cells after 72 hrs by MTT assay
Type: functional
Conditions: P388, 72 h, read-out: ED50 (the source's name)

| SMILES | EC50 [µg/mL] |
| --- | --- |
| C=C1[C@@H]2CC[C@@]3(C)[C@H](c4ccoc4)OC(=O)C[C@]13O[C@H]1[C@H](OC(C)=O)[C@H](OC(C)=O)C(C)(C)[C@H](CC(=O)OC)[C@@]21C | > 5 |
| CC[C@@H](C)C(=O)O[C@@H]1[C@H]2C(=O)[C@@](C)([C@@H](CC(=O)OC)C1(C)C)[C@@]13O[C@@H]1C[C@@]1(C)[C@H](c4ccoc4)OC(=O)C[C@@H]1[C@]31O[C@H]21 [CINERACIPADESIN A] | > 5 |
| C=C1[C@@]23CC(=O)O[C@@H](c4ccoc4)[C@]2(C)C[C@@H](O)[C@]1(O)[C@@]1(C)[C@@H](O3)[C@@H](OC(C)=O)[C@@H](OC(C)=O)C(C)(C)[C@@H]1CC(=O)OC [CINERACIPADESIN B] | > 5 |
| C=C1[C@]2(O)C(=O)C[C@@]3(C)[C@H](c4ccoc4)OC(=O)C[C@]13O[C@H]1C[C@@H](OC(C)=O)C(C)(C)[C@H](CC(=O)OC)[C@]12C [CINERACIPADESIN C] | > 5 |
| C=C1[C@@H]2[C@H](OC(C)=O)C[C@@]3(C)[C@H](c4ccoc4)OC(=O)C[C@]13O[C@H]1C[C@@H](OC(C)=O)C(C)(C)[C@H](CC(=O)OC)[C@]12C [CINERACIPADESIN D] | > 5 |
| C=C1[C@@H]2[C@H](OC(C)=O)C[C@@]3(C)[C@H](c4ccoc4)OC(=O)C[C@]13O[C@H]1[C@@H](OC(C)=O)[C@@H](OC(C)=O)C(C)(C)[C@H](CC(=O)OC)[C@@]21C [CINERACIPADESIN E] | > 5 |
| C=C1[C@]2(OC(C)=O)C[C@@]3(C)[C@H](c4ccoc4)OC(=O)C[C@]13O[C@H]1[C@@H](OC(C)=O)[C@@H](OC(C)=O)C(C)(C)[C@H](CC(=O)OC)[C@@]1(C)C2=O [CINERACIPADESIN F] | > 5 |

Source: ChEMBL document CHEMBL1151852, “Tetranortriterpenoids from the Leaves of Cipadessa cinerascens” (2009)
